Experimental data published in EP4467141A1, “PYRAZOLO-QUINOLINES AS SELECTIVE INHIBITORS OF GENOTOXIC STRESS-INDUCED IKK/NF- KB PATHWAYS FOR CANCER THERAPY” (Max-Delbrück-Centrum für Molekulare Medizin in der …, priority 2023, dated 2024).

Columns and labels:
Format in all cases: cell-based
[1] = tested on: U2-OS cells; assay: Western blot of apoptosis and DNA damage markers (cleaved caspase-3, PARP1 cleavage, p53, γH2AX) in U2-OS cells; conditions: for cleaved caspase-3, etoposide co-treatment: 10 µM plus etoposide 50 µM; for cleaved caspase-3, etoposide co-treatment / cleaved caspase-3, compound alone: 24 hours; for cleavage of PARP1, as apoptotic marker / cleaved caspase-3, compound alone: 10 µM; for cleavage of PARP1, as apoptotic marker: 8 hours after 10 Gy irradiation
Protocol: Fig.4: MW01 and MW05 reduce cell viability and increase p53-mediated apoptosis upon etoposide co-treatment. (A) Representative light microscopy images of U2-OS cells following treatment with DMSO, MW01 (10 µM), MW05 (10 µM), or etoposide (50 µM), or co-treatment with MW01 (10 µM) and etoposide (50 µM), or MW05 (10 µM) and etoposide (50 µM) at 24 (left) and 48 hours (right). (B) Quantification of cell viability using CellTiter-Fluor Cell Viability Assay at 6, 24, and 48 hours. Treatment with 0.1% SDS 30 minutes prior to assay was used as positive cell death control. (ns: not significant; *, **, ***: p<0.05, p<0.01, p<0.001). (C) U2-OS cells were treated with DMSO, MW01 (10 µM), MW 05 (10 µM), or etoposide (50 µM), or co-treated with MW01 (10 µM) and etoposide (50 µM), or MW05 (10 µM) and etoposide (50 µM), as indicated. After 24 hours, whole cell lysates were prepared and analyzed by Western blotting for p65 phosphorylation (S536), caspase-3 and cleaved caspase-3 (left panel) and for p53 and γH2AX) (right panel). Vinculin was used as loading control.
Fig.7: (A) Immunoprecipitation of IKKγ from HEK293 lysates pre-treated for 1 hour with DMSO, MW01 or MW05, then irradiated (IR, 20 Gy) and lysed. (B) Western blot analysis of MEF cells pre-treated with DMSO, MW01, MW05 or ATM inhibitor KU55933 and irradiated (IR, 20 Gy). Lysates were subjected to SDS-PAGE/WB. The specific IKKγ S85 band (lower band) was identified by induction following irradiation and by sensitivity to ATMi and λ- phosphatase (λ-PP) treatment. (C) Western blot analysis of U2os cells pre-treated for 1 hour with the indicated substances, irradiated (IR, 20 Gy) and whole cell lysates probed for poly(ADP)-ribose. (D) Western blot analysis of cytoplasmic and nuclear fractions from U2-OS cells for p-ATM (S 1981), after 1 hour pre-treatment with DMSO, MW01 (10 µM), or MW05 (10 µM) and 45 min following irradiation (IR, 20 Gy). PARP1 and LDHA are used as loading controls for nuclear and cytoplasmic fractions respectively. (E) mRNA expression analysis of CLK4 (top), 48 hours after transfection with siNC or siCLK4. mRNA expression analysis of NFKBIA (bottom), 48 hours after transfection with siNC or siCLK4. Values normalized to unstimulated siNC expressing cells. Statistical comparison was made between experimental conditions and paired siNC control. ns: not significant; **, ***, ****: p<0.01, p<0.001, p<0.0001. (F) Western blot analysis of p65 phosphorylation (S536) and CLK4 expression after transfection with siNC or siCLK4 in unstimulated, after 90 min irradiation (IR, 20 Gy), or after 20 min TNFα (10 ng/mL) conditions in U2-OS cells. Vinculin is used as loading control. Note that CLK4 and p-p65 were blotted on separate membranes, with respective vinculin blots underneath. (G) MW01 and MW05 are inhibitors of DNA damage-induced p65 nuclear translocation. U2-OS cells were pre-treated with DMSO, MW01 or MW05. Etoposide was added and after 2 hours cells were fixed and nuclei stained with DAPI. P65 and γH2AX were stained by immunofluorescence and images taken at a confocal Zeiss 710 LSM microscope with a 40x oil objective. (H) Western blot analysis of U2-OS cells 8 hours after 10 Gy irradiation following 1 hour pre-treatment with 10 µM DMSO, MW01, or MW05. Tubulin was used loading control. (I) mRNA expression analysis of BIRC3 in U2-OS cells 8 hours after 10 Gy irradiation following 1 hour pre-treatment with 10 µM DMSO, MW01, or MW05 and. Values were normalized to DMSO-treated unstimulated cells.
Cells were collected by scraping and lysed in Baeuerle lysis buffer supplemented with Protease (Thermo Fisher Scientific, 78429) and Phosphatase (Thermo Fisher Scientific, 78420) inhibitors after the appropriate treatment and time point. […]

[2] = tested on: BIRC3; assay: RT-qPCR mRNA expression analysis of BIRC3 in U2-OS cells after irradiation; conditions: 10 µM, 8 hours after 10 Gy irradiation
[3] = tested on: IKKγ; assay: IKKγ phosphorylation (S85) and mono-ubiquitination after irradiation (immunoprecipitation / Western blot); conditions: irradiation (IR, 20 Gy); 1 hour pre-treatment
Protocol: Fig.7: (A) Immunoprecipitation of IKKγ from HEK293 lysates pre-treated for 1 hour with DMSO, MW01 or MW05, then irradiated (IR, 20 Gy) and lysed. (B) Western blot analysis of MEF cells pre-treated with DMSO, MW01, MW05 or ATM inhibitor KU55933 and irradiated (IR, 20 Gy). Lysates were subjected to SDS-PAGE/WB. The specific IKKγ S85 band (lower band) was identified by induction following irradiation and by sensitivity to ATMi and λ- phosphatase (λ-PP) treatment. (C) Western blot analysis of U2os cells pre-treated for 1 hour with the indicated substances, irradiated (IR, 20 Gy) and whole cell lysates probed for poly(ADP)-ribose. (D) Western blot analysis of cytoplasmic and nuclear fractions from U2-OS cells for p-ATM (S 1981), after 1 hour pre-treatment with DMSO, MW01 (10 µM), or MW05 (10 µM) and 45 min following irradiation (IR, 20 Gy). PARP1 and LDHA are used as loading controls for nuclear and cytoplasmic fractions respectively. […]
To identify inhibitors that selectively prevent DNA damage-induced NF-κB activation, we established a high-throughput screening platform quantifying p65 nuclear translocation, an essential step in NF-κB activation (Hayden and Ghosh, 2008). […] The IC50s of p65 nuclear translocation following both stimuli were determined for 21 compounds. […]

Row | Structure (SMILES) | cleaved caspase-3, etoposide co-treatment [1] | cleavage of PARP1, as apoptotic marker [1] | cleaved caspase-3, compound alone [1] | upregulation of anti-apoptotic NF-κB target gene BIRC3 [2] | IR-induced IKKy phosphorylation and mono-ubiquitination [3]
1 | COc1ccc2c(c1OC)c(=O)n1c3ccc(O)cc3c3ccnc2c31 [MW01, 5-Hydroxy-10,11-dimethoxy-9H-benzo[c]indolo[3,2,1-ij][1,5]naphthyridin-9-one] | increased | potentiated | did not observe an increase | abolished | inhibited
2 | COc1ccc2cc3c(N)nn(C(=O)c4cccc(N(C)C)c4)c3nc2c1 [MW05, (3-Amino-7-methoxypyrazolo[3,4-b]quinolin-1-yl)-[3-(dimethylamino)phenyl]methanone] | increased | potentiated | did not observe an increase | abolished | inhibited
